pIC50: −log10 of the molar value.
What was measured:
[1] = molecular target: Dipeptidyl peptidase 9 (Homo sapiens, UniProt Q86TI2); assay: Inhibition of DPP9
[2] = molecular target: Dipeptidyl peptidase 2 (Homo sapiens, UniProt Q9UHL4); assay: Inhibition of QPP
[3] = molecular target: Dipeptidyl peptidase 8 (Homo sapiens, UniProt Q6V1X1); assay: Inhibition of DPP8
[4] = molecular target: Dipeptidyl peptidase 4 (Homo sapiens, UniProt P27487)
[5] = Oral bioavailability in rat; type: ADME, organism-based; settings: in vivo
[6] = (§1) Half life in rat; type: ADME, organism-based; settings: in vivo
[7] = Plasma clearance in rat; type: ADME, organism-based
[8] = test system: Mus musculus; assay: Reduction of blood glucose excursion in lean mouse at 3.0 mg/kg by oral glucose tolerance test; type: functional; design: scale not given: the % may be the effect or the level left
[9] = test system: Mus musculus; assay: Reduction of blood glucose excursion in lean mouse at 0.1 mg/kg by oral glucose tolerance test; type: functional; design: scale not given: the % may be the effect or the level left
[10] = Half life in rhesus monkey; type: ADME, organism-based, Macaca mulatta; settings: in vivo
[11] = Oral bioavailability in rhesus monkey; type: ADME, organism-based, Macaca mulatta; settings: in vivo
[12] = Half life in dog; type: ADME, organism-based, Canis lupus familiaris; settings: in vivo
[13] = Oral bioavailability in dog; type: ADME, organism-based, Canis lupus familiaris; settings: in vivo
[14] = test system: Mus musculus; assay: Reduction of blood glucose excursion in lean mouse at 1.0 mg/kg by oral glucose tolerance test; type: functional; design: scale not given: the % may be the effect or the level left
[15] = Plasma clearance in rhesus monkey; type: ADME, organism-based, Macaca mulatta
[16] = Plasma clearance in dog; type: ADME, organism-based, Canis lupus familiaris
[17] = organism: Rattus norvegicus; assay: as §1; type: ADME, organism-based; settings: in vivo

Chain of Dipeptidyl peptidase 4 (P27487 whole entry): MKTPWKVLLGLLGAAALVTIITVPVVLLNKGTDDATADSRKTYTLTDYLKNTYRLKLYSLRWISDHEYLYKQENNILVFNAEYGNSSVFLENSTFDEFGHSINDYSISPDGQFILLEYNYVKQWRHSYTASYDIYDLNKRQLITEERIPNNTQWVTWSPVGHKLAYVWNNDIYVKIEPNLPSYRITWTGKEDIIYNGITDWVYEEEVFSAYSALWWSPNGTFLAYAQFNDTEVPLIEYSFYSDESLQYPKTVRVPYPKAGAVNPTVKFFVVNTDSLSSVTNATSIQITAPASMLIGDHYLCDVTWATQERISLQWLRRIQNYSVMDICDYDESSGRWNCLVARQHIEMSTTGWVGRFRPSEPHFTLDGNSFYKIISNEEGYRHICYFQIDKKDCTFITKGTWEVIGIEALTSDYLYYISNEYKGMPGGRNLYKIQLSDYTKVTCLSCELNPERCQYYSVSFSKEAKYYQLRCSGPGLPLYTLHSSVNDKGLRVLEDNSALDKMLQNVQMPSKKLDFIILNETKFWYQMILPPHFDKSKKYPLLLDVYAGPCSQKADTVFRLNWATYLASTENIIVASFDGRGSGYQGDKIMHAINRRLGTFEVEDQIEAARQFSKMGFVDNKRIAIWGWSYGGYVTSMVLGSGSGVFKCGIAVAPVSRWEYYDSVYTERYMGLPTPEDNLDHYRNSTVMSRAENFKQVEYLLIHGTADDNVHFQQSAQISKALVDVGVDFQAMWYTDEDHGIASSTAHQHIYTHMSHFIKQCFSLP
Chain of Dipeptidyl peptidase 8 (Q6V1X1 whole entry): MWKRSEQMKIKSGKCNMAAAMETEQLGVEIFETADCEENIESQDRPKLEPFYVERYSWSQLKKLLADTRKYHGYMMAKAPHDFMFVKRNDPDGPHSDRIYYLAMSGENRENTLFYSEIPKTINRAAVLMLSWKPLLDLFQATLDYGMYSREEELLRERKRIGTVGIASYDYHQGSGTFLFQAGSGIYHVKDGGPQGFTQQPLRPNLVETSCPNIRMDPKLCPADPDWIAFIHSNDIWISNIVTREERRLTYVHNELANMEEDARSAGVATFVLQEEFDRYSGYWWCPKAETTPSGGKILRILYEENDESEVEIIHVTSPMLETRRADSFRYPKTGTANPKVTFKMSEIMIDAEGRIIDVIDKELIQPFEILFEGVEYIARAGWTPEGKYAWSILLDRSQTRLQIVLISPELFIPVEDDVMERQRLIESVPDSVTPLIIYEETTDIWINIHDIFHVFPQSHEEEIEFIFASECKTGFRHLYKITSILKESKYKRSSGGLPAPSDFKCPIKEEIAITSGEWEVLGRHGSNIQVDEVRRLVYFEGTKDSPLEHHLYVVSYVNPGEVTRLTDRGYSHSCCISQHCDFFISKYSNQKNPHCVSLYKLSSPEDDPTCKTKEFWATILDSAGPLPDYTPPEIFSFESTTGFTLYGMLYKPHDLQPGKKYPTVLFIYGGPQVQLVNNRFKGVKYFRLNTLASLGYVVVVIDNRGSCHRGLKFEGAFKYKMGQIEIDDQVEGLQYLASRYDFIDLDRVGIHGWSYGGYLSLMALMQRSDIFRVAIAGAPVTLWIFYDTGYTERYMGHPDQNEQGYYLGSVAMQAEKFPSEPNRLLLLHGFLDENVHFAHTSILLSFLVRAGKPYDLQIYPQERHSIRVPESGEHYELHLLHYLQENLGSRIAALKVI
Chain of Dipeptidyl peptidase 9 (Q86TI2 whole entry): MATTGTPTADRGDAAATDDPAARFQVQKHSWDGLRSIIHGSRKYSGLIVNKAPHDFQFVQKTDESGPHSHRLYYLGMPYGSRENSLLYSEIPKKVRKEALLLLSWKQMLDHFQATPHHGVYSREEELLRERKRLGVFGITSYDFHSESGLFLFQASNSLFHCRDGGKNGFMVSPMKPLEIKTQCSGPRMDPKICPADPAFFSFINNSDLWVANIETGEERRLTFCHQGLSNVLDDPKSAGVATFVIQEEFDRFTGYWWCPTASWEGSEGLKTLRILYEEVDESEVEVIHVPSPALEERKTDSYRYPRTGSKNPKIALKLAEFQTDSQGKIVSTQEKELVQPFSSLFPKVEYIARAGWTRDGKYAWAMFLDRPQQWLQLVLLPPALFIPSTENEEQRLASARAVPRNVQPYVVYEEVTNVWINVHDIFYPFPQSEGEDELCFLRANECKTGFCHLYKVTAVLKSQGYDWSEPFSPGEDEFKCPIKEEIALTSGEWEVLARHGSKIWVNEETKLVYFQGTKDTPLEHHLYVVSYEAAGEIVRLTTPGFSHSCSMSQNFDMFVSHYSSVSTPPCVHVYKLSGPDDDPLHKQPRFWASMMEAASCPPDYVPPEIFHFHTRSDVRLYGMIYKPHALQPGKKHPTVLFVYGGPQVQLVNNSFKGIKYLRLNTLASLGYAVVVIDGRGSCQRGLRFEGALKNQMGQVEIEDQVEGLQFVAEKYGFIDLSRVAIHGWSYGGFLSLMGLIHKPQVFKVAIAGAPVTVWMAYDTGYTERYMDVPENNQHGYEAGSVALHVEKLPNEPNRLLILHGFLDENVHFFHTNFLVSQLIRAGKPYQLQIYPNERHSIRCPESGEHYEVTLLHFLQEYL

Compound	pIC50 [1]	pIC50 [2]	pIC50 [3]	pIC50 [4]	bioavailability [5]	half-life [6]	clearance [7]	further results
N[C@@H](CC(=O)N1CCn2nc(C3CC3)nc2C1)Cc1cc(F)c(F)cc1F	< 4.00	< 4.00	< 4.00					
N[C@@H](CC(=O)N1CCn2nc(C(F)(F)F)nc2[C@@H]1C(F)C1CC1)Cc1cc(F)c(F)cc1F (stereo in doubt; 34d)		5.39	< 4.00	7.96				
N[C@@H](CC(=O)N1CCn2nc(C(F)(F)F)nc2C1)Cc1cc(F)c(F)cc1F	< 4.00				100%	3.6 h	60 mL/min/kg	
N[C@@H](CC(=O)N1CCn2nc(C(F)(F)F)nc2[C@H]1Cc1ccc(F)cc1)Cc1cc(F)c(F)cc1F					32%	2.7 h	76 mL/min/kg	
N[C@@H](CC(=O)N1CCn2nc(C(F)(F)F)nc2[C@@H]1C(O)C1CC1)Cc1cc(F)c(F)cc1F (some centres not stated) [listing 1 of 2 here]	< 4.00				63%	3.9 h	97 mL/min/kg	
N[C@@H](CC(=O)N1CCn2nc(-c3ccccc3)nc2C1)Cc1cc(F)c(F)cc1F	< 4.00							
N[C@@H](CC(=O)N1CCn2nc(C(F)(F)F)nc2C1Cn1cccn1)Cc1cc(F)c(F)cc1F (some centres not stated)	< 4.00	5.02	< 4.00		62%	2.3 h	142 mL/min/kg	
N[C@@H](CC(=O)N1CCn2nc(C(F)(F)F)nc2[C@H]1Cn1cncn1)Cc1cc(F)c(F)cc1F	< 4.00	4.66	< 4.00	8.70				
C[C@@H]1c2nc(C(F)(F)F)nn2CCN1C(=O)C[C@H](N)Cc1cc(F)c(F)cc1F	< 4.00	4.60	< 4.00		74%	4 h	68 mL/min/kg	Activity [8]: 44%; Activity [9]: 14%; half-life [10]: 7.7 h; bioavailability [11]: 65%; half-life [12]: 26 h; bioavailability [13]: 67%; Activity [14]: 39%; clearance [15]: 16 mL/min/kg; clearance [16]: 1 mL/min/kg
N[C@@H](CC(=O)N1CCn2nc(C(F)(F)F)nc2C1Cn1cncn1)Cc1cc(F)c(F)cc1F (some centres not stated)	< 4.00	4.31	< 4.00	8.30	13%	2.8 h	129 mL/min/kg	
N[C@@H](CC(=O)N1CCn2nc(C(F)(F)F)nc2C1Cn1ccnc1)Cc1cc(F)c(F)cc1F (some centres not stated)		4.59	< 4.00		7.1%	9 h	97 mL/min/kg	
N[C@@H](CC(=O)N1CCn2nc(C(F)(F)F)nc2[C@@H]1C(F)C1CC1)Cc1cc(F)c(F)cc1F (stereo in doubt; 34c)		5.24	< 4.00	7.74				
N[C@@H](CC(=O)N1CCn2c(nnc2C(F)(F)F)C1)Cc1cc(F)c(F)cc1F [SITAGLIPTIN]							60 mL/min/kg	t1/2 [17]: 1.7 h; half-life [10]: 3.7 h; bioavailability [11]: 68%; half-life [12]: 4.9 h; bioavailability [13]: 100%; clearance [15]: 28 mL/min/kg; clearance [16]: 6 mL/min/kg
N[C@@H](CC(=O)N1CCn2nc(C(F)(F)F)nc2[C@@H]1C(O)C1CC1)Cc1cc(F)c(F)cc1F (some centres not stated) [listing 2 of 2 here]	< 4.00				51%	5.1 h	91 mL/min/kg	
C[C@H]1c2nc(C(F)(F)F)nn2CCN1C(=O)C[C@H](N)Cc1cc(F)c(F)cc1F	< 4.00	4.14	< 4.00					
N[C@@H](CC(=O)N1CCn2ncnc2C1)Cc1cc(F)c(F)cc1F	< 4.00	< 4.00	< 4.00	7.00				

Reference: ChEMBL document CHEMBL1140460, “Design, synthesis, and biological evaluation of triazolopiperazine-based beta-amino amides as potent, orally active dipeptidyl peptidase IV (DPP-4) inhibitors” (Bioorg Med Chem Lett, 2007)
